Key:
[1] = molecular target: p70S6K (T412E mutant) (Homo sapiens (Human), UniProt P23443, T412E); experiment: p70S6K enzyme assay; assay type: biochemical
Procedure: p70S6K inhibitor compounds were diluted and plated in 96 well plates. A reaction mixture including the following components were then added to the compound plate to initiate the enzyme reaction: p70S6K (3 nM, T412E mutant, Millipore) was mixed with 24 μM ATP in an assay buffer containing 100 mM Hepes (pH 7.5), 5 mM MgCl2, 1 mM DTT, 0.015% Brij and 1 μM of the substrate peptide FITC-AHA-[…]-OH (derived from the S6 ribosomal protein sequence, FITC=fluorescein isothiocyanate, AHA=6-aminohexanoic acid). The reaction was incubated for 90 min at 25° C., before the addition of 10 mM EDTA to stop the reaction. The proportion of substrate and product (phosphorylated) peptide was analyzed on a Caliper Life Sciences Lab Chip 3000, using a pressure of −1.4 psi, and upstream and downstream voltages of −3000 and −700, respectively. Product peaks were resolved before substrate peaks on the resulting chromatograms. To assess the inhibitory potential of the compounds, IC50 values were determined, as shown above.

[2] = molecular target: His-AKT (Full Length) (Homo sapiens (Human), UniProt P31749); experiment: AKT/PKB kinase assay; assay type: biochemical
His-AKT (Full Length), sequence (P31749 whole entry): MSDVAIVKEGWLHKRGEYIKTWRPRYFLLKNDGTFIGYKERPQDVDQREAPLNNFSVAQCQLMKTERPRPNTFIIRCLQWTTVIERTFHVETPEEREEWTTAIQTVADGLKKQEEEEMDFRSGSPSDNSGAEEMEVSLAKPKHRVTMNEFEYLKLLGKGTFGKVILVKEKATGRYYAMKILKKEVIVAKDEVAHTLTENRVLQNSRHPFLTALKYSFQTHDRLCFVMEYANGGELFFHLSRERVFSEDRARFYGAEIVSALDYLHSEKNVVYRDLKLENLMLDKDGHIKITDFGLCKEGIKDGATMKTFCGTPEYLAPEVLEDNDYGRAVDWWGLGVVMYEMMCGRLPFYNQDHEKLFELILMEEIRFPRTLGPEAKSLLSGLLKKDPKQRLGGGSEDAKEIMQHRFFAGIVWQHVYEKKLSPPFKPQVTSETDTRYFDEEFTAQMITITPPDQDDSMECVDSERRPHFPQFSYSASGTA
Procedure: In order to measure AKT inhibition in the Caliper Life Sciences LC3000, a TTP Mosquito liquid handling instrument was used to place 125 nl of the appropriate concentration of inhibitor in 100% DMSO (for a dose response curve calculation) into each well of a 384-well plate. To this reaction, the following components were added to a final volume of 12.5 μl: • 0.1 ng/μl His-AKT (Full Length) (Invitrogen, Part # P2999, Lot #641228C); • 160 μM ATP (Fluka, 02055); • 1 mM DTT (Sigma, D0632); • 1 mM MgCl2 (Sigma, M1028); • 1 μM substrate peptide (sequence FITC-AHA-[…]-NH2), synthesized by • Tufts Peptide Synthesis service; • 100 mM HEPES pH 7.5 (Calbiochem, 391338); and • 0.015% Brij-35 (Sigma, B4184).
The reaction was incubated for 90 min at 25° C., and then stopped by the addition of 70 μl of Stop buffer (100 mM HEPES pH 7.5, 0.015% Brij-35, 10 mM EDTA (Sigma, E7889)). The plate was read on a Caliper LC 3000 in an Off-Chip mobility shift assay format, using the following parameters for a 12-sipper chip: screening pressure −2.3 psi, upstream voltage −500, and downstream voltage −3000. These conditions cause unphosphorylated substrate and phosphorylated product peptide to resolve as separate peaks allowing direct measurement of percentage of conversion of substrate to product. The percent conversion was plotted against concentration of inhibitor to produce a sigmoidal dose response curve, from which an IC50 was calculated.

[3] = 24 μM ATP, 90 min at 25° C., Caliper mobility shift
[4] = value printed in the synthesis paragraph
[5] = 160 μM ATP, 90 min at 25° C., Caliper mobility shift

p70S6K (T412E mutant), sequence (P23443 whole entry T412E): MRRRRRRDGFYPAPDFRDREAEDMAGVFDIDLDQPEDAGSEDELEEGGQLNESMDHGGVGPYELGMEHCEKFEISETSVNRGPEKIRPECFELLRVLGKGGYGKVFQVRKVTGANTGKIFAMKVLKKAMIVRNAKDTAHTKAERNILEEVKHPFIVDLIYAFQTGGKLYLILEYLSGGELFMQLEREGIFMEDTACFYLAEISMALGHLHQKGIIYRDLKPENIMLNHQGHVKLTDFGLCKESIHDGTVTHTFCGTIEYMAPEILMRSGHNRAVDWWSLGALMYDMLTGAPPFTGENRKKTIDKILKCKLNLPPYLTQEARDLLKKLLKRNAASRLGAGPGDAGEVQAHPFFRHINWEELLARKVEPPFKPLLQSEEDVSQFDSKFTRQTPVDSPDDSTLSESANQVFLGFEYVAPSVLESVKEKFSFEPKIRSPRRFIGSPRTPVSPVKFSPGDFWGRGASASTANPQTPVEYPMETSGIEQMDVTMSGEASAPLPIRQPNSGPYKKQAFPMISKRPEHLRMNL

Row | SMILES | IC50 [1, 3] | IC50 [2, 5] | IC50 [1, 4] | IC50 [2, 4]
1 | NC(=O)c1ccnc2c(N[C@H](CN3CCC3)c3ccc(Cl)c(C(F)(F)F)c3)ncnc12 [Compound 41, 4-[(S)-2-Azetidin-1-yl-1-(4-chloro-3-trifluoromethyl-phenyl)-ethylamino]-pyrido[3,2-d]pyrimidine-8-carboxamide] | < 25 nM | < 25 nM | 1.6 nM | 11 nM
2 | CC(C)NC[C@@H](Nc1ncnc2c(C(N)=O)ccnc12)c1ccc(F)c(C(F)(F)F)c1 [Compound 52, 4-[(S)-1-(4-Fluoro-3-trifluoromethyl-phenyl)-2-isopropylamino-ethylamino]-pyrido[3,2-d]pyrimidine-8-carboxylic Acid Amide] | 25 to 100 nM | 101 to 500 nM | – | –
3 | CC(C)NC[C@@H](Nc1ncnc2c(C(N)=O)ccnc12)c1ccc(Cl)c(F)c1 [Compound 54, 4-[(S)-1-(4-Chloro-3-fluoro-phenyl)-2-isopropylamino-ethylamino]-pyrido[3,2-d]pyrimidine-8-carboxylic Acid Amide] | 25 to 100 nM | 101 to 500 nM | – | –
4 | CC(C)NC[C@@H](Nc1ncnc2c(C(N)=O)ccnc12)c1ccc(Cl)c(C(F)(F)F)c1 [Compound 55, 4-[(S)-1-(4-Chloro-3-trifluoromethyl-phenyl)-2-isopropylamino-ethylamino]-pyrido[3,2-d]pyrimidine-8-carboxylic Acid Amide] | 101 to 500 nM | 101 to 500 nM | – | –
5 | CCNC[C@@H](Nc1ncnc2c(C(N)=O)ccnc12)c1cc(F)c(F)cc1F [Compound 58, 4-[(S)-2-Ethylamino-1-(2,4,5-trifluoro-phenyl)-ethylamino]-pyrido[3,2-d]pyrimidine-8-carboxylic Acid Amide] | 25 to 100 nM | 101 to 500 nM | – | –
6 | CNC[C@@H](Nc1ncnc2c(C(N)=O)ccnc12)c1cc(F)c(F)cc1F [Compound 60, 4-[(S)-2-Methylamino-1-(2,4,5-trifluoro-phenyl)-ethylamino]-pyrido[3,2-d]pyrimidine-8-carboxylic Acid Amide] | 25 to 100 nM | 25 to 100 nM | – | –
7 | CNC[C@@H](Nc1ncnc2c(C(N)=O)ccnc12)c1cccc(Br)c1 [Compound 65, 4-[(S)-1-(3-Bromo-phenyl)-2-methylamino-ethylamino]-pyrido[3,2-d]pyrimidine-8-carboxylic Acid Amide] | < 25 nM | < 25 nM | – | –
8 | CNC[C@@H](Nc1ncnc2c(C(N)=O)ccnc12)c1cccc(F)c1 [Compound 66, 4-[(S)-1-(3-Fluoro-phenyl)-2-methylamino-ethylamino]-pyrido[3,2-d]pyrimidine-8-carboxylic Acid Amide] | < 25 nM | < 25 nM | – | –
9 | CNC[C@@H](Nc1ncnc2c(C(N)=O)ccnc12)c1ccc(F)c(C)c1 [Compound 67, 4-[(S)-1-(4-Fluoro-3-methyl-phenyl)-2-methylamino-ethylamino]-pyrido[3,2-d]pyrimidine-8-carboxylic Acid Amide] | < 25 nM | < 25 nM | – | –
10 | NC(=O)c1ccnc2c(N[C@H](CN3CCC3)c3cccc(F)c3)ncnc12 [Compound 68, 4-[(S)-2-Azetidin-1-yl-1-(3-fluoro-phenyl)-ethylamino]-pyrido[3,2-d]pyrimidine-8-carboxylic Acid Amide] | < 25 nM | 25 to 100 nM | – | –
11 | NC(=O)c1ccnc2c(N[C@H](CN3CC(F)C3)c3ccc(Cl)c(C(F)(F)F)c3)ncnc12 [Compound 69, 4-[(S)-1-(4-Chloro-3-trifluoromethyl-phenyl)-2-(3-fluoro-azetidin-1-yl)-ethylamino]-pyrido[3,2-d]pyrimidine-8-carboxylic Acid Amide] | < 25 nM | 25 to 100 nM | – | –
12 | NC(=O)c1ccnc2c(N[C@H](CN3CC(O)C3)c3ccc(Cl)c(C(F)(F)F)c3)ncnc12 [Compound 70, 4-[(S)-1-(4-Chloro-3-trifluoromethyl-phenyl)-2-(3-hydroxy-azetidin-1-yl)-ethylamino]-pyrido[3,2-d]pyrimidine-8-carboxylic Acid Amide] | < 25 nM | 25 to 100 nM | – | –
13 | NC(=O)c1ccnc2c(N[C@@H](CN3CCC3)c3ccc(Cl)c(C(F)(F)F)c3)ncnc12 [Compound 71, 4-[(R)-2-Azetidin-1-yl-1-(4-chloro-3-trifluoromethyl-phenyl)-ethylamino]-pyrido[3,2-d]pyrimidine-8-carboxylamide] | 501 to 1000 nM | > 1000 nM | – | –

Continued, in another order:

Row | IC50 [1, 3] | IC50 [2, 5] | SMILES | IC50 [1, 4] | IC50 [2, 4]
14 | < 25 nM | < 25 nM | CNC[C@@H](Nc1ncnc2c(C(N)=O)nccc12)c1ccc(Cl)c(C(F)(F)F)c1 [Compound 42, 4-[(S)-1-(4-Chloro-3-trifluoromethyl-phenyl)-2-methylamino-ethylamino]-pyrido[3,4-d]pyrimidine-8-carboxylic Acid Amide] | – | –
15 | < 25 nM | < 25 nM | CNC[C@@H](Nc1ncnc2c(C(N)=O)ccnc12)c1ccc(C(F)(F)F)c(C(F)(F)F)c1 [Compound 43, 4-[(S)-1-(3,4-Bis-trifluoromethyl-phenyl)-2-methylamino-ethylamino]-pyrido[3,2-d]pyrimidine-8-carboxylamide] | – | –
16 | < 25 nM | < 25 nM | CNC[C@@H](Nc1ncnc2c(C(N)=O)ccnc12)c1ccc(Cl)c(C)c1 [Compound 44, 4-[(S)-1-(4-Chloro-3-methyl-phenyl)-2-methylamino-ethylamino]-pyrido[3,2-d]pyrimidine-8-carboxylic Acid Amide] | – | –
17 | < 25 nM | 25 to 100 nM | CNC[C@@H](Nc1ncnc2c(C(N)=O)ccnc12)c1ccc(Cl)cc1 [Compound 45, 4-[(S)-1-(4-Chloro-phenyl)-2-methylamino-ethylamino]-pyrido[3,2-d]pyrimidine-8-carboxylic Acid Amide] | – | –
18 | < 25 nM | < 25 nM | Cc1cc([C@@H](CN2CCC2)Nc2ncnc3c(C(N)=O)ccnc23)ccc1Cl [Compound 46, 4-[(S)-2-Azetidin-1-yl-1-(4-chloro-3-methyl-phenyl)-ethylamino]-pyrido[3,2-d]pyrimidine-8-carboxylic Acid Amide] | – | –
19 | < 25 nM | < 25 nM | CNC[C@@H](Nc1ncnc2c(C(N)=O)ccnc12)c1ccc(F)c(C(F)(F)F)c1 [Compound 49, 4-[(S)-1-(4-Fluoro-3-trifluoromethyl-phenyl)-2-methylamino-ethylamino]-pyrido[3,2-d]pyrimidine-8-carboxylic Acid Amide] | – | –
20 | < 25 nM | 25 to 100 nM | CN(C)C[C@@H](Nc1ncnc2c(C(N)=O)ccnc12)c1ccc(F)c(C(F)(F)F)c1 [Compound 50, 4-[(S)-2-Dimethylamino-1-(4-fluoro-3-trifluoromethyl-phenyl)-ethylamino]-pyrido[3,2-d]pyrimidine-8-carboxylic Acid Amide] | – | –
21 | < 25 nM | < 25 nM | CNC[C@@H](Nc1ncnc2c(C(N)=O)ccnc12)c1ccc(F)c(C(F)F)c1 [Compound 51, 4-[(S)-1-(3-Difluoromethyl-4-fluoro-phenyl)-2-methylamino-ethylamino]-pyrido[3,2-d]pyrimidine-8-carboxylic Acid Amide] | – | –
22 | < 25 nM | 25 to 100 nM | CCNC[C@@H](Nc1ncnc2c(C(N)=O)ccnc12)c1ccc(F)c(C(F)(F)F)c1 [Compound 56, 4-[(S)-2-Ethylamino-1-(4-fluoro-3-trifluoromethyl-phenyl)-ethylamino]-pyrido[3,2-d]pyrimidine-8-carboxylic Acid Amide] | – | –
23 | < 25 nM | < 25 nM | CCNC[C@@H](Nc1ncnc2c(C(N)=O)ccnc12)c1ccc(C(F)(F)F)c(C(F)(F)F)c1 [Compound 59, 4-[(S)-1-(3,4-Bis-trifluoromethyl-phenyl)-2-ethylamino-ethylamino]-pyrido[3,2-d]pyrimidine-8-carboxylic Acid Amide] | – | –
24 | < 25 nM | < 25 nM | NC(=O)c1ccnc2c(N[C@H](CN3CCC3)c3ccc(C(F)(F)F)c(C(F)(F)F)c3)ncnc12 [Compound 63, 4-[(S)-2-Azetidin-1-yl-1-(3,4-bis-trifluoromethyl-phenyl)-ethylamino]-pyrido[3,2-d]pyrimidine-8-carboxylic Acid Amide] | – | –
25 | < 25 nM | < 25 nM | CNC[C@@H](Nc1ncnc2c(C(N)=O)ccnc12)c1cccc(Cl)c1 [Compound 64, 4-[(S)-1-(3-Chloro-phenyl)-2-methylamino-ethylamino]-pyrido[3,2-d]pyrimidine-8-carboxylic Acid Amide] | – | –
